According to patent EP4707284A1, “HETEROCYCLIC COMPOUND AND USE THEREOF” (Otsuka Pharmaceutical Co., Ltd., priority 2023, dated 2024):

Format: physicochemical
Settings: Tris-hydrochloric acid buffer (pH 7.5) 50 mmol/L, magnesium chloride 5 mmol/L, evaluation compound 1 µmol/L, 37°C, 60 minutes, average of duplicate
Procedure: The conversion from the evaluation compounds to brexpiprazole in a buffer (i.e., the stability of the evaluation compounds) was evaluated.
The Example 1 compound was dissolved in acetonitrile/water (1:1, v/v) to 10 mmol/L and further diluted with acetonitrile/water (1:1, v/v) to 100 µmol/L for use.
The other Example compounds and the Reference Example 5 compound to Reference Example 7 compound were each dissolved in DMSO to 10 mmol/L and further diluted with acetonitrile to 100 µmol/L for use, except for the following compounds.
The compounds of Examples 52, 95, 96, 117, and 130 (EX 52, EX 95, EX 96, EX 117, and EX 130) were dissolved in acetonitrile/water (8:2, v/v) to 10 mmol/L and further diluted with acetonitrile to 100 µmol/L for use.
The compound of Example 97 (EX 97) was dissolved in acetonitrile/water (8:2, v/v) to 10 mmol/L and further diluted with acetonitrile/water (8:2, v/v) to 100 µmol/L for use.
The compounds of Examples 15 and 116 (EX 15 and EX 116) were dissolved in DMSO to 1 mmol/L and further diluted with acetonitrile to 100 µmol/L for use.
These evaluation compound solutions were prepared at the time of use.
The reaction was conducted by preparing each reaction solution such that the final concentration of each component was as follows. The test was conducted in duplicate.
For the compounds of Examples 1 to 8, 10 to 19, 26 to 27, 37, 50, 87 to 89, 91, 116, 121, 123, 150, and 151 (EX 1 to EX 8, EX 10 to EX 19, EX 26 to EX 27, EX 37, EX 50, EX 87 to EX 89, EX 91, EX 116, EX 121, EX 123, EX 150, and EX 151), and the compounds of Reference Examples 5 to 7 (REX 5 to REX 7), the reaction solution without the evaluation compound (198 µl) was pre-incubated at 37°C for 3 minutes, and then each of the evaluation compound solutions (2 µl) was added and stirred; thereafter, the reaction was started at 37°C. At 0 minutes or 60 minutes after the start of the reaction, the reaction was stopped by adding and stirring a reaction stop solution (1000 µl) composed of acetonitrile/isopropanol (4:1, v/v) containing internal standard substances. However, the 0-minute reaction sample (198 µl) was prepared by adding the evaluation compound (2 µl) after adding the reaction stop solution (1000 µl). The samples after stopping the reaction were used as the measurement samples. Calibration curve samples with the same composition were prepared (final concentrations of the evaluation compounds and brexpiprazole: 0.01, 0.1, and 1 µmol/L, with the proviso that for the evaluation compounds only, the 0-minute reaction samples were also used as calibration curve samples for 1 µmol/L).
For the compounds of Examples 24 to 25, 28 to 29, 32 to 36, 40 to 49, 51 to 60, 62 to 64, 66 to 77, 80 to 86, 90, 92 to 111, 113, 115, 117 to 120, 122, 124 to 130, 132 to 147, and 152 to 160 (EX 24 to EX 25, EX 28 to EX 29, EX 32 to EX 36, EX 40 to EX 49, EX 51 to EX 60, EX 62 to EX 64, EX 66 to EX 77, EX 80 to EX 86, EX 90, EX 92 to EX 111, EX 113, EX 115, EX 117 to EX 120, EX 122, EX 124 to EX 130, EX 132 to EX 147, and EX 152 to EX 160), the reaction solution without the evaluation compound (148.5 µl) was pre-incubated at 37°C for 3 minutes, and then each of the evaluation compound solutions (1.5 µl) was added and stirred; thereafter, the reaction was started at 37°C. At 0 minutes or 60 minutes after the start of the reaction, the reaction was stopped by adding and stirring a reaction stop solution (600 µl) composed of acetonitrile/isopropanol (4:1, v/v) containing internal standard substances. However, the 0-minute reaction sample (148.5 µl) was prepared by adding the evaluation compound (1.5 µl) after adding the reaction stop solution (600 µl). The samples after stopping the reaction were used as the measurement samples. […]

Structure (SMILES)	Concentration of brexpiprazole formed	Concentration of evaluation compound decreased
CC(C)NC(=O)CCCC(=O)OCOP(=O)([O-])OC[N+]1(CCCCOc2ccc3ccc(=O)[nH]c3c2)CCN(c2cccc3sccc23)CC1 [EX 73]	0 nM	130 nM
CCCOP(=O)([O-])OC[N+]1(CCCCOc2ccc3ccc(=O)[nH]c3c2)CCN(c2cccc3sccc23)CC1 [EX 88]	0 nM	-10 nM
COc1ccc(COC(=O)CC(C)(C)CC(=O)OCOP(=O)([O-])OC[N+]2(CCCCOc3ccc4ccc(=O)[nH]c4c3)CCN(c3cccc4sccc34)CC2)cc1 [EX 72]	0 nM	150 nM
O=C(O)CCCC(=O)OCOP(=O)([O-])OC[N+]1(CCCCOc2ccc3ccc(=O)[nH]c3c2)CCN(c2cccc3sccc23)CC1 [EX 70]	0 nM	0 nM
O=c1ccc2ccc(OCCCC[N+]3(COP(=O)([O-])O)CCN(c4cccc5sccc45)CC3)cc2[nH]1 [EX 1, (4-(benzo[b]thiophen-4-yl)-1-((4-((2-oxo-1,2-dihydroquinolin-7-yl)oxy)butyl)piperazin-1-ium-1-yl)methyl hydrogen phosphate]	0 nM	0 nM
CC1(C)OCC(COP(=O)([O-])OC[N+]2(CCCCOc3ccc4ccc(=O)[nH]c4c3)CCN(c3cccc4sccc34)CC2)CO1 [EX 55]	0 nM	70 nM
O=c1ccc2ccc(OCCCC[N+]3(COP(=O)([O-])OCCCOc4ccccc4)CCN(c4cccc5sccc45)CC3)cc2[nH]1 [EX 84]	0 nM	10 nM
CCCCCCOC(=O)OC[N+]1(CCCCOc2ccc3ccc(=O)[nH]c3c2)CCN(c2cccc3sccc23)CC1.[I-] [REX 7, 4-(Benzo[b]thiophen-4-yl)-1-((((hexyloxy)carbonyl)oxy)methyl)-1-(4-((2-oxo-1,2-dihydroquinolin-7-yl)oxy)butyl)piperazin-1-ium iodide, reference compound]	240 nM	270 nM
COCC(COC)OP(=O)([O-])OC[N+]1(CCCCOc2ccc3ccc(=O)[nH]c3c2)CCN(c2cccc3sccc23)CC1 [EX 56]	0 nM	40 nM
COCCC(=O)OCOP(=O)([O-])OC[N+]1(CCCCOc2ccc3ccc(=O)[nH]c3c2)CCN(c2cccc3sccc23)CC1 [EX 28]	-10 nM	-70 nM
O=c1ccc2ccc(OCCCC[N+]3(COP(=O)([O-])OCCN4CCC(F)(F)CC4)CCN(c4cccc5sccc45)CC3)cc2[nH]1 [EX 119]	0 nM	140 nM
CC(C)OC(=O)[C@H](C)NP(=O)([O-])OC[N+]1(CCCCOc2ccc3ccc(=O)[nH]c3c2)CCN(c2cccc3sccc23)CC1 [EX 159]	0 nM	60 nM
O=C(OCOP(=O)([O-])OC[N+]1(CCCCOc2ccc3ccc(=O)[nH]c3c2)CCN(c2cccc3sccc23)CC1)OCC1CCOCC1 [EX 142]	0 nM	-70 nM
CC1(C)OCC(COC(=O)CCCCC(=O)OCOP(=O)([O-])OC[N+]2(CCCCOc3ccc4ccc(=O)[nH]c4c3)CCN(c3cccc4sccc34)CC2)CO1 [EX 75]	0 nM	70 nM
CCOCCOCCOP(=O)([O-])OC[N+]1(CCCCOc2ccc3ccc(=O)[nH]c3c2)CCN(c2cccc3sccc23)CC1 [EX 98]	0 nM	-20 nM
O=c1ccc2ccc(OCCCC[N+]3(COP(=O)([O-])OCC4CC4)CCN(c4cccc5sccc45)CC3)cc2[nH]1 [EX 91]	0 nM	120 nM
O=c1ccc2ccc(OCCCC[N+]3(COP(=O)([O-])OCCCCBr)CCN(c4cccc5sccc45)CC3)cc2[nH]1 [EX 62]	0 nM	180 nM
O=c1ccc2ccc(OCCCC[N+]3(COP(=O)([O-])OCCCCCCCO)CCN(c4cccc5sccc45)CC3)cc2[nH]1 [EX 45]	0 nM	70 nM
CC(C)(C)OC(=O)CNP(=O)([O-])OC[N+]1(CCCCOc2ccc3ccc(=O)[nH]c3c2)CCN(c2cccc3sccc23)CC1 [EX 155]	0 nM	160 nM
CCCC(=O)OCOP(=O)([O-])OC[N+]1(CCCCOc2ccc3ccc(=O)[nH]c3c2)CCN(c2cccc3sccc23)CC1 [EX 121]	0 nM	90 nM
CC1(C)O[C@H]2[C@@H](O1)[C@@H](COP(=O)([O-])OC[N+]1(CCCCOc3ccc4ccc(=O)[nH]c4c3)CCN(c3cccc4sccc34)CC1)O[C@@H]1OC(C)(C)O[C@@H]12 [EX 100]	0 nM	50 nM
CC(=O)OCCCCCCOP(=O)([O-])OC[N+]1(CCCCOc2ccc3ccc(=O)[nH]c3c2)CCN(c2cccc3sccc23)CC1 [EX 101]	0 nM	80 nM
COCCOC(=O)OCOP(=O)([O-])OC[N+]1(CCCCOc2ccc3ccc(=O)[nH]c3c2)CCN(c2cccc3sccc23)CC1 [EX 33]	0 nM	0 nM
O=C(O)CCCCCOC(=O)OCOP(=O)([O-])OC[N+]1(CCCCOc2ccc3ccc(=O)[nH]c3c2)CCN(c2cccc3sccc23)CC1 [EX 145]	0 nM	30 nM
CCOCCCOP(=O)([O-])OC[N+]1(CCCCOc2ccc3ccc(=O)[nH]c3c2)CCN(c2cccc3sccc23)CC1 [EX 97]	0 nM	90 nM
CC(C)(C)OC(=O)CCCC(=O)OCOP(=O)([O-])OC[N+]1(CCCCOc2ccc3ccc(=O)[nH]c3c2)CCN(c2cccc3sccc23)CC1 [EX 69]	0 nM	-10 nM

Same assay, conditions: Tris-hydrochloric acid buffer (pH 7.5), 37°C, 60 minutes

Structure (SMILES)	stability in the buffer / conversion to brexpiprazole (in words)
CCCCCCOC(=O)OC[N+]1(CCCCOc2ccc3ccc(=O)[nH]c3c2)CCN(c2cccc3sccc23)CC1.[I-] [REX 7, 4-(Benzo[b]thiophen-4-yl)-1-((((hexyloxy)carbonyl)oxy)methyl)-1-(4-((2-oxo-1,2-dihydroquinolin-7-yl)oxy)butyl)piperazin-1-ium iodide, reference compound]	clearly degraded to brexpiprazole
